Test results taken from paper PMC8909805, “Anticancer Activity of (S)-5-Chloro-3-((3,5-dimethylphenyl)sulfonyl)-N-(1-oxo-1-((pyridin-4-ylmethyl)amino)propan-2-yl)-1H-indole-2-carboxamide (RS4690), a New Dishevelled 1 Inhibitor” (Cancers, 2022).

Target: T1, DVL1 binding to FZD4 (Homo sapiens, UniProt O14640)
T1 construct: host or cells: HEK293
T1 sequence (O14640 1-695): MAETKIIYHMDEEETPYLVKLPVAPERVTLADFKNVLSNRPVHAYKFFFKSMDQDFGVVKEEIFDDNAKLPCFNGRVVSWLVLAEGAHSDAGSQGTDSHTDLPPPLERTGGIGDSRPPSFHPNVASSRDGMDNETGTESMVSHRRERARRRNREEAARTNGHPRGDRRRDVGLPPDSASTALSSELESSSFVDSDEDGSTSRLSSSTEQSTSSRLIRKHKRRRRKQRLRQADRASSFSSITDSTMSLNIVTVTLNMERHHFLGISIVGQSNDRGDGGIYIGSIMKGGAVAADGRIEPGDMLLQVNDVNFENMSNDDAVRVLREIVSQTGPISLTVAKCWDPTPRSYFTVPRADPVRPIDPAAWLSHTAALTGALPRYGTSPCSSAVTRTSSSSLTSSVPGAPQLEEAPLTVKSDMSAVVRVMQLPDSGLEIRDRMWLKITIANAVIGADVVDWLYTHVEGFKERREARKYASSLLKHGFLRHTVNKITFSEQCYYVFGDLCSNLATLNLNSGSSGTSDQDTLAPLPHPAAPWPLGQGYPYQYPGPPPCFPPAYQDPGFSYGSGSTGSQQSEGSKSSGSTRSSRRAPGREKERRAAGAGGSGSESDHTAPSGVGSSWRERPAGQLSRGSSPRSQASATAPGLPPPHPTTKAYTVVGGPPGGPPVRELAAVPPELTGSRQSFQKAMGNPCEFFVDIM
Test: Inhibition of DVL1 (DVL-GFP) recruitment by FZD4 at the plasma membrane of HEK293 cells
Assay type: cell-based
Settings: HEK293 cells co-transfected with HA-FZD4 and GFP-DVL-1; 24 h treatment; read-out: EC50 ± SD DVL1 Binding Inhibition
Method: HEK293 cells were seeded in 96-well tissue culture plates at a density of 5 × 10 ^3/well. After 16–24 h seeding, cells were co-transfected with HA-FZD4-wt (0.04 µg/well) and GFP-tagged DVL-1 (0.04 µg/well) using PEI (0.25 µL/well) in a final volume of 100 µL/well. After 24 h of transfection, the medium was replaced and supplemented with the indicated compounds diluted in culture medium. After 24 h of treatment, cells were fixed in 3.7% formaldehyde freshly diluted in PBS for 30 min at RT, quenched with 0.1 M glycine/PBS for 30 min at RT, and washed with PBS. Samples were observed under a Leica confocal fluorescent microscope. Inhibition of DVL recruitment was measured by counting the percentage of cells losing GFP-DVL-1 localization on the PM. Experiments were performed in triplicate, and the standard deviations are indicated.
The crucial role played by PDZ domains in the spreading of cellular signals and their aberrant activations in many human diseases makes the PDZ domains very attractive targets for drug discovery. […] To identify new DVL1 inhibitors, we followed a virtual screening approach by fixing as the main filter a pharmacophoric model. We speculated that compound 2, the recently reported inhibitor of NHERF1 PDZ1 domain [26], may be able also to bind the DVL PDZ domain. The activity of compound 2 was assayed in HEK293 cells transiently expressing both HA-tagged-FZD4 (HA-FZD4) and the chimeric construct DVL-GFP. In the absence of HA-FZD4, DVL-GFP is localized in punctate intracellular structures known as signalosomes. In the presence of FZD-4 expression, DVL-GFP is recruited on the PM of the cell showing a drastic change in localization. As previously reported, drugs acting as inhibitors of FZD4/DVL binding reduce the amount of DVL-GFP recruited on the PM. […] Thus, we used the information gained from the binding mode of compound 2 to design a pharmacophore model that would lead to the identification of new DVL1 PDZ binders. At the same time, to better distinguish between the inhibitory activities of DVL1 and NHERF1, we added a new query to the pharmacophore model. Actually, comparing the PDZ structures of the studied proteins, we identified a significant difference. The upper part of the carboxylic binding loop was delimited by Tyr24, Ile79 and Val86 for NHERF1, while we observed Leu12, Val75 and Ile81, respectively, for DVL1. […] This peculiar feature of the DVL1 PDZ was included in our pharmacophore model by adding a hydrophobic query to obtain the required selectivity (Figure S1, Supplementary Materials). […] Thus, for each molecule, we obtained 10 conformations, and all of the proposed binding poses (7000 molecules per 10 conformations) were scored by the fitting to the pharmacophore model. […]

Row | EC50 [nM] | Structure (SMILES)
1 | 29500 ± 900 | Cc1cc(C)cc(S(=O)(=O)c2c(C(=O)N[C@H](C)C(=O)NCc3ccncc3)[nH]c3ccc(Cl)cc23)c1 [(R)-1]
2 | 490 ± 110 | Cc1cc(C)cc(S(=O)(=O)c2c(C(=O)N[C@@H](C)C(=O)NCc3ccncc3)[nH]c3ccc(Cl)cc23)c1 [(S)-1, (S)-5-Chloro-3-((3,5-dimethylphenyl)sulfonyl)-N-(1-oxo-1-((pyridin-4-ylmethyl)amino)propan-2-yl)-1H-indole-2-carboxamide]
3 | 740 ± 80 | Cc1cc(C)cc(S(=O)(=O)c2c(C(=O)NC(C)C(=O)NCc3ccncc3)[nH]c3ccc(Cl)cc23)c1 (stereo not drawn) [Compound 1]
